# Assay: Human HepG2 cell viability assay in 384 well format
# Type: toxicity, cell-based
# Parameters: dose 125 nL, time 70.5 hour; cytotoxicity at 70.5 h: concentration not given beside the values
# Details: HepG2 cells, read-out: Inhibition
row,SMILES,cytotoxicity at 70.5 h [%]
1,CC(C)N1CCC(N2CCN(C3CCCCC3)CC2CCO)CC1 (stereo unspecified),-10.5
2,CC(O)CNCc1ccccc1C(F)(F)F (stereo unspecified),-5.36
3,COC(=O)[C@@H](NC(=O)c1coc(COc2cccc(F)c2)n1)C(C)C,4.83
4,O=C1OCCN1Cc1cccc(F)c1C(F)(F)F,-5.55
5,CNc1ccc(Cl)cc1C(=O)N1CCC(Cn2cc(CN)nn2)CC1,1.05
6,CO[C@H]1CNC[C@@H]1NC(=O)c1cc(C)nc2ccc(C)cc12,12.1
7,Cc1nc(N(C)C)nc(-c2cccc(-c3ccn(CCCF)n3)c2)c1C,-10.9
8,CCOCCC(=O)N1Cc2cnc(-c3ccccc3)nc2C1,-12.5
9,CCN(CC)Cc1nc(Cc2cccc(C(F)(F)F)c2)no1,-7.89
10,COC[C@H]1CCCN1c1nccc(-c2cnn(-c3ccccc3C)c2)n1,-1.39
11,CCS(=O)(=O)c1ncc(CN(C)Cc2ccc(C)o2)n1CCOC,17.1
12,CSCc1ccc(N2CCN(c3ccc(Cl)cn3)CC2)nc1,3.63
13,Cc1cccc(CN2CCN(c3nc(CO)cs3)CC2)c1,-4.76
14,COCCN1CCC(CNC(=O)Nc2ccc(SC(F)(F)F)cc2)C1 (stereo unspecified),-1.27
15,O=C(Nc1ccccc1CCc1ccccn1)NC1CCOCC1,0.573
16,Cc1cnc(NCC(C)(C)N2CCN(C)CC2)nc1,-0.355
17,CCC[C@@H]1CN(Cc2ccc(C(F)(F)F)nc2)C[C@H]1C(=O)O,-8.04
18,CC(C)c1cc(C(=O)N2C[C@H]3CC[C@@H]2CN(Cc2ccccn2)C3)no1,-7.13
19,COc1ccc2c(C)nc(N3CCN([C@H]4CCCC[C@@H]4O)CC3)nc2c1,18.8
20,COCCN1C(=O)[C@H]2CC[C@@H]1CN(S(=O)(=O)c1ccc(OC)cc1)C2,-3.09
21,CCSc1ncc(-c2cc(C3CCC3)nc(N)c2C#N)cn1,9.11
22,Cc1ccccc1C1CCN(CCn2cc(-c3cccc(O)c3)nn2)C1 (stereo unspecified),29.4
23,O=C(CCN1CCCC1c1ccccn1)N1CCc2ccccc2C1 (stereo unspecified),-16.1

row,SMILES,cytotoxicity at 70.5 h [%]
1,CCOc1ccc(C(=O)CCC(=O)N(C)Cc2nc(C)c[nH]2)cc1C,-19.8
2,COc1ccccc1-c1ncc(CN2C[C@@H](N(C)C)[C@H](C(C)C)C2)s1,-5.83
3,CS(=O)(=O)NCCC(=O)NCc1cccnc1-n1cnc2ccccc21,-12.6
4,CN(C)C(=O)N1CCCC(C(=O)N(C)CCCc2cnn(C)c2)C1 (stereo unspecified),-11.5
5,CN1CCN(C[C@@H]2CN(C(=O)CC3CCCCC3)C[C@@H]2CO)CC1,0.234
6,CN(CCCO)C(=O)c1cc(COc2ccc3c(c2)CCCC3)on1,-7.55
7,CCc1c(O)nc(SCC(=O)Nc2ccccc2)n(C(C)CC)c1=O (stereo unspecified),22
8,O=C(CCc1nc(Cl)n[nH]1)NC1CCCN(C2Cc3ccccc3C2)C1 (stereo unspecified),-9.23
9,Cc1nc(CNC(=O)c2cc(COc3ccccc3)[nH]n2)n[nH]1,-5.91
10,COc1ccc(CN2CCCC2)cc1Oc1ccc(NC(C)=O)cc1,-3.35
11,Cc1cnc(C(=O)N2C[C@H]3CC[C@@H]2CN(c2cnccn2)C3)cn1,-2.4
12,Cc1nc(N2CCN(C)CC2)ncc1C(=O)N1C[C@@H](C)[C@@](C)(O)C1,4.1
13,CN(C)[C@H]1CCCCN(Cc2cnc(NCc3ccccc3)nc2)C1,-1.39
14,CN1CCCN(Cc2nc(Cc3ccccc3)n[nH]2)CC1,-3.87
15,CC(C)N1CC2(CCC1=O)CCN(c1ccnc3ccccc13)CC2,41.8
16,CCc1nc(N)sc1C(=O)N1CCCC(COc2cccc(C)c2)C1 (stereo unspecified),-0.442
17,CNC(=O)[C@@H]1C[C@@H](NC(=O)Cc2cccs2)CN1C1CCOCC1,-3.22
18,c1cnc(N2CCC3(CCCN(CC4CCCCC4)C3)C2)cn1 (stereo unspecified),-11.2
19,CSc1ccc(-c2nc(CN3CCNCC3C)c(C)o2)cc1 (stereo unspecified),3
20,CCOc1ccc(CCCC(=O)N2CCC(c3nnn[nH]3)CC2)cc1C,-11.9
21,CCCOC1CCCN(Cc2nc(-c3ccc(F)cc3F)oc2C)C1 (stereo unspecified),-5.84
22,O=C(O)[C@@H]1CN(Cc2ccc(-c3cc[nH]n3)s2)C[C@H]1C1CC1,-4.26
23,CN1CCC(CNC(=O)Cc2ccc(N(C)C)cc2)CC1,-6.81

row,SMILES,cytotoxicity at 70.5 h [%]
1,O=C(c1coc(CN2CCN(c3ccccc3F)CC2)n1)N1CC=CC1,15.2
2,Cc1ccccc1CN(CCN(C)C)Cc1ccc(O)c(C(=O)O)c1,-8.19
3,Cn1cc2ncn(CCCOc3cccnc3)c(=O)c2n1,22.8
4,CN1CC2(CCCN(c3cnccn3)C2)OC1=O (stereo unspecified),-9.73
5,CCCc1nnc(N2C[C@@H](C)[C@@](C)(O)C2)s1,12
6,Cc1ccccc1-n1cc(-c2ccnc(N3CCCC(CN)C3)n2)cn1 (stereo unspecified),-7.47
7,CC(=O)NC1CCN(c2nc(N)nc3c2CCCC3)C1 (stereo unspecified),-8.84
8,CC(O)C1CCN(Cc2cnc3c(-c4ccccc4)cnn3c2)CC1 (stereo unspecified),-7.53
9,CN(C)C(C(=O)N1Cc2ccccc2C1)c1ccccc1F (stereo unspecified),-2.59
10,O=C(NCCc1c[nH]cn1)c1ccccc1C1CCNC1 (stereo unspecified),18
11,CCN(Cc1cnn(CC)c1)Cc1c(Cl)cncc1Cl,-2.13
12,O=C(c1ccncc1F)N1C[C@H]2CC[C@@H]1CN(Cc1cccnc1)C2,-4.95
13,CCn1ncnc1C(C)NC(=O)C1CCN(C2CCCCC2)CC1 (stereo unspecified),-7.1
14,COCCN1CCN(Cc2nccs2)[C@H]2CS(=O)(=O)C[C@H]21,-2.69
15,Fc1ccc(C2(CNCCc3cccs3)CCOC2)cc1 (stereo unspecified),-6.84
16,O=C(O)[C@@H]1CN(C(=O)CN2Cc3ccccc3C2)C[C@H]1c1ccncc1,-1.71
17,O=C(O)[C@@H]1CN(C(=O)CCCc2ccc(F)cc2)C[C@H]1C1CC1,-5.36
18,C=Cc1cccc(CN2C[C@@H](CN(C)CC)[C@@H](CO)C2)c1,3.14
19,O=C(O)c1ccc(CC2CCN(Cc3ccc(-c4cc[nH]n4)o3)C2)cc1 (stereo unspecified),-5.13
20,Cc1cc(C)cc(-n2ncc3c2CCCC3N)c1 (stereo unspecified),-5.06
21,COCCC(=O)N(Cc1cccnc1)CC1CCN(C2CCCC2)CC1,3.05
22,Cc1nc(N(CCC(N)=O)Cc2ccccc2)c2nc(C)oc2n1,9.6
23,O=C(NCCc1nc2ccccc2s1)c1coc(CN2CCOCC2)c1,5.71

row,SMILES,cytotoxicity at 70.5 h [%]
1,CC(C)NC(=O)[C@@H]1C[C@@H](N)CN1C(=O)CCSCc1ccccc1,1.3
2,O=C(CN1CCCC1=O)NCc1cccnc1Oc1ccc(F)c(F)c1,1.24
3,C[C@@H]1CN(C(=O)CCN2CCOCC2)CC[C@]1(C)O,-2.33
4,Cc1ccc(CN(CCN(C)C)C(=O)Nc2cc(C(N)=O)ccc2C)s1,21.3
5,Cc1cc(-c2ccccc2Cl)nc(N)n1,-8.36
6,N#Cc1cccc(CN2CCN(C(=O)C3CCC3)[C@@H]3CS(=O)(=O)C[C@@H]32)c1,-4.15
7,O=S(=O)(c1ccc(-c2cnco2)cc1)N1CCC2(CCCNC2)C1 (stereo unspecified),-1.83
8,CN1CCC(N2CC[C@@H]3[C@@H](CCC(=O)N3CCC3=CCCCC3)C2)CC1,-1.35
9,COc1nccnc1N1CCC2(CC1)C(=O)N(C)c1ccccc12,-2.17
10,O=C(c1n[nH]c2c1CCC2)N1CCCC1c1nc(-c2ccccc2)no1 (stereo unspecified),-1.83
11,CN(C)c1ccc(C2CC(=O)Nc3c2cnn3Cc2ccco2)cc1 (stereo unspecified),-7.08
12,CC(C)(C)C1CCC(NCCN2CCOCC2)CC1 (stereo unspecified),-5.37
13,O=C(C1CCC1)N1CCN(Cc2cccnc2)[C@H]2CS(=O)(=O)C[C@H]21,-2.54
14,CC(Cc1cn(CCc2nc(N)cc(O)n2)nn1)c1ccccc1 (stereo unspecified),-11.4
15,CN(C)C1CCN(Cc2cnc(S(C)(=O)=O)n2CC2CCCCC2)C1 (stereo unspecified),-7.41
16,CCN1CCCC(C)(C(=O)NCCc2n[nH]c(=O)[nH]2)C1 (stereo unspecified),-3.84
17,Cc1ccc(C)c2c(O)cc(CNCCNC(=O)C(C)C)nc12,-6.05
18,Cc1cccnc1CN1CCOC(Cc2cccc3ccccc23)C1 (stereo unspecified),-6.62
19,CCOCC1(CNCc2cc(O)c3cc(C)ccc3n2)CC1,-1.7
20,Cn1c(CCC(=O)N2CCCC3(CNC(=O)O3)C2)nc2cccnc21 (stereo unspecified),-14.8
21,COc1ccc(Oc2ncccc2C(F)(F)F)cc1CN1CCCC1,14
22,COCCN1CCC(CN(CC2CCCO2)C(=O)CCC(F)(F)F)CC1 (stereo unspecified),-2.11
23,CC(C)c1cc(C(=O)N2CCN(c3cccc(C(=O)O)c3)CC2)n(C)n1,-13.2

row,SMILES,cytotoxicity at 70.5 h [%]
1,CCc1cc(CN(C)C(=O)c2cc(=O)[nH]c(=O)[nH]2)on1,-9.27
2,O=C1NCCCC12CCN(Cc1ccc(-c3ccccc3)s1)C2 (stereo unspecified),7.11
3,CCc1ccc(-c2cn(CCSc3ncn[nH]3)nn2)nc1,-1.59
4,CCC(=O)Nc1cccc(OCC(=O)N(C)Cc2ccon2)c1,8.51
5,CC(C)N(CCNc1nc(C2CCCC2)nc2c1cnn2C)C(C)C,-1.41
6,COc1cccc(CC2(CO)CCCN(c3nccs3)C2)c1 (stereo unspecified),-1.79
7,Cc1nc2ccc(-n3ncnc3[C@@H]3CCCN3S(C)(=O)=O)cc2s1,12.3
8,Cc1cnc(C(=O)N2CCc3c(nc(-c4ccncc4)[nH]c3=O)C2)cn1,-3.01
9,CN(Cc1ccccc1)c1cnn(CC2CCCCO2)c(=O)c1 (stereo unspecified),-4.54
10,CCc1cnc(C)nc1N(C)CCCc1cnn(C)c1,-12.1
11,Cc1nc(CN2CCC(NS(C)(=O)=O)CC2)co1,-9.09
12,NCC1Cc2cc(F)cc(-c3cnccn3)c2O1 (stereo unspecified),-3.38
13,Cc1c(C(=O)N2CCC3(CCCN(CC4CC4)C3=O)C2)ccn1C (stereo unspecified),15.8
14,Nc1nc(CNc2ncnc3c2CCN(Cc2ccoc2)CC3)cs1,29
15,CC(C)Cc1nnc(SCC(=O)O)n1-c1ccc(F)cc1F,5.45
16,CN(C)C(C(=O)NCC1(C)COC1)c1cccc(F)c1 (stereo unspecified),-3.06
17,CCCc1cncnc1N1CCC2(CCC(=O)N(CCOC)C2)CC1,13.2
18,Cc1ccccc1C(CNc1ncnc2c1CCNCC2)N(C)C (stereo unspecified),5.24
19,OC(CNCc1ccccc1C(F)(F)F)c1ccccc1 (stereo unspecified),-5.57
